Measurements published in ChEMBL document CHEMBL3885861, “Open TG-GATES”.

Species: Rattus norvegicus
Experiment: Open TG-GATES - Regimen: Single
Format: toxicity, organism-based, Sprague-Dawley
Design: regimen Single, gender Male, age 6 weeks
Conditions: in vivo, iv, 12 mg/kg, route intravenous injection, dose level Low; for APTT / Bas / Eos / Fbg / Hb / Ht / Lym / MCH / MCHC / MCV / Mono / Neu / PT / Plat / RBC / Ret / WBC: tissue Blood; for KIDNEY_L / KIDNEY_R / KIDNEY_TOTAL: tissue Kidney; for LIVER: tissue Liver; for A/G / ALP / ALT / AST / BUN / CRE / Ca / Cl / DBIL / GLC / IP / K / LDH / Na / PL / RALB / TBIL / TC / TG / TP / gamma-GTP: tissue Plasma

## CN(C)c1ncnc2c1ncn2[C@@H]1O[C@H](CO)[C@@H](N)[C@H]1O [PUROMYCIN AMINONUCLEOSIDE]
3 h
  TERMINAL_BW: 215.3 g
  APTT: 22.9 s
  Bas: 0%
  Eos: 0.8%
  Fbg: 276 mg/dL
  Hb: 13.1 g/dL
  Ht: 38.5%
  Lym: 69.6%
  MCH: 21.4 pg
  MCHC: 33.9%
  MCV: 63.1 fL
  Mono: 4%
  Neu: 24.4%
  PT: 16 s
  Plat: 119.9 x10_4/uL
  RBC: 611.4 x10_4/ul
  Ret: 6.4%
  WBC: 112.8 x10_2/uL
  KIDNEY_L: 1 g
  KIDNEY_R: 1 g
  KIDNEY_TOTAL: 1.9 g
  LIVER: 10 g
  A/G: 1.3
  ALP: 1670.4 IU/L
  ALT: 45.2 IU/L
  AST: 76.6 IU/L
  BUN: 13.6 mg/dL
  CRE: 0.2 mg/dL
  Ca: 11 mg/dL
  Cl: 105.6 meq/L
  DBIL: 0 mg/dL
  GLC: 181.6 mg/dL
  IP: 7.8 mg/dL
  K: 4.2 meq/L
  LDH: 180.2 IU/L
  Na: 141.4 meq/L
  PL: 143.4 mg/dL
  RALB: 3 g/dL
  TBIL: 0.02 mg/dL
  TC: 73.2 mg/dL
  TG: 72.4 mg/dL
  TP: 5.4 g/dL
  gamma-GTP: 1 IU/L
6 h
  TERMINAL_BW: 208.1 g
  APTT: 22.9 s
  Bas: 0%
  Eos: 0.8%
  Fbg: 316.4 mg/dL
  Hb: 13.1 g/dL
  Ht: 39.2%
  Lym: 72.8%
  MCH: 20.5 pg
  MCHC: 33.5%
  MCV: 61 fL
  Mono: 3.2%
  Neu: 22.2%
  PT: 15.9 s
  Plat: 119.1 x10_4/uL
  RBC: 643 x10_4/ul
  Ret: 6.5%
  WBC: 104.4 x10_2/uL
  KIDNEY_L: 0.9 g
  KIDNEY_R: 0.9 g
  KIDNEY_TOTAL: 1.8 g
  LIVER: 8.9 g
  A/G: 1.3
  ALP: 1246 IU/L
  ALT: 37.4 IU/L
  AST: 71.2 IU/L
  BUN: 11.6 mg/dL
  CRE: 0.1 mg/dL
  Ca: 11.1 mg/dL
  Cl: 105.6 meq/L
  DBIL: 0 mg/dL
  GLC: 182.4 mg/dL
  IP: 9 mg/dL
  K: 4.3 meq/L
  LDH: 153.4 IU/L
  Na: 140.4 meq/L
  PL: 136.8 mg/dL
  RALB: 3 g/dL
  TBIL: 0.026 mg/dL
  TC: 71.4 mg/dL
  TG: 83 mg/dL
  TP: 5.5 g/dL
  gamma-GTP: 1.2 IU/L
9 h
  TERMINAL_BW: 212.5 g
  APTT: 21.5 s
  Bas: 0%
  Eos: 1%
  Fbg: 306.4 mg/dL
  Hb: 12.5 g/dL
  Ht: 37.4%
  Lym: 75%
  MCH: 20.6 pg
  MCHC: 33.5%
  MCV: 61.7 fL
  Mono: 2.8%
  Neu: 20.6%
  PT: 16.2 s
  Plat: 130.4 x10_4/uL
  RBC: 607.8 x10_4/ul
  Ret: 7.7%
  WBC: 98.3 x10_2/uL
  KIDNEY_L: 1 g
  KIDNEY_R: 1 g
  KIDNEY_TOTAL: 1.9 g
  LIVER: 8.5 g
  A/G: 1.3
  ALP: 1182.4 IU/L
  ALT: 35.4 IU/L
  AST: 69.6 IU/L
  BUN: 10.6 mg/dL
  CRE: 0.2 mg/dL
  Ca: 11.1 mg/dL
  Cl: 105.4 meq/L
  DBIL: 0 mg/dL
  GLC: 174 mg/dL
  IP: 9.9 mg/dL
  K: 4.3 meq/L
  LDH: 129.8 IU/L
  Na: 141.6 meq/L
  PL: 132.6 mg/dL
  RALB: 3 g/dL
  TBIL: 0.03 mg/dL
  TC: 71.2 mg/dL
  TG: 81.4 mg/dL
  TP: 5.4 g/dL
  gamma-GTP: 1.2 IU/L
24 h
  TERMINAL_BW: 220.5 g
  APTT: 21.8 s
  Bas: 0%
  Eos: 1%
  Fbg: 309.4 mg/dL
  Hb: 13 g/dL
  Ht: 37.8%
  Lym: 82%
  MCH: 20.8 pg
  MCHC: 34.4%
  MCV: 60.5 fL
  Mono: 2.6%
  Neu: 13.6%
  PT: 15.9 s
  Plat: 114.8 x10_4/uL
  RBC: 627.2 x10_4/ul
  Ret: 6.2%
  WBC: 91 x10_2/uL
  KIDNEY_L: 1 g
  KIDNEY_R: 1 g
  KIDNEY_TOTAL: 2 g
  LIVER: 9.9 g
  A/G: 1.2
  ALP: 1421.6 IU/L
  ALT: 43 IU/L
  AST: 72.2 IU/L
  BUN: 17.8 mg/dL
  CRE: 0.2 mg/dL
  Ca: 11.1 mg/dL
  Cl: 104.4 meq/L
  DBIL: 0 mg/dL
  GLC: 188.6 mg/dL
  IP: 8.6 mg/dL
  K: 4.3 meq/L
  LDH: 156.6 IU/L
  Na: 141.4 meq/L
  PL: 153 mg/dL
  RALB: 3.1 g/dL
  TBIL: 0.018 mg/dL
  TC: 75.8 mg/dL
  TG: 119.4 mg/dL
  TP: 5.5 g/dL
  gamma-GTP: 1.2 IU/L
